How the values were obtained:
[1] = tested on: S. aureus Newman; assay: Bliss interaction score (quartile over a dose matrix) (fitness difference); higher = more antagonism (negative = synergy)
Procedure, shortened: (§1)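 The Bliss score subtracts expected fitness, the product of the single-drug fitness values, from observed fitness. Fitness is plate-normalised OD595 at entry into stationary phase, relative to the robust no-drug mean and capped at 1, with single-drug fitness inferred from combinations. Summaries are quartiles over technical, biological and donor/recipient replicates.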

[2] = tested on: S. pneumoniae D39V; assay: as above
Procedure, shortened: as §1

[3] = tested on: S. aureus DSM 20231; assay: as above
Procedure, shortened: as §1

[4] = tested on: B. subtilis 168; assay: as above
Procedure, shortened: as §1

[5] = tested on: S. aureus Newman; assay: fitness (endpoint OD595 vs no drug) (fraction); higher = more growth
Procedure, shortened: (§2)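 Fitness was defined as the optical density at the transition into stationary phase relative to the robust mean of no-drug control wells. Values were capped at 1. Cultures were started at OD595 0.01 in 384-well plates (30 µl, or 55 µl for S. pneumoniae) in TSB, LB Lennox or CY at 37 °C. OD595 was recorded every 30 min over 14 h, with the first reading subtracted as background.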

[6] = tested on: S. pneumoniae D39V; assay: as above
Procedure, shortened: as §2

[7] = tested on: B. subtilis 168; assay: as above
Procedure, shortened: as §2
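Wherever Bliss interaction score (quartile over a dose matrix) is given: first quartile when negative (synergy) and third quartile when positive (antagonism).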

CC1=C(C(=O)O)N2C(=O)[C@@H](NC(=O)[C@H](N)c3ccccc3)[C@H]2SC1 [Cephalexin] + COc1ccc(C[C@H](N)C(=O)N[C@H]2[C@@H](O)[C@H](n3cnc4c(N(C)C)ncnc43)O[C@@H]2CO)cc1 [Puromycin]
Conditions | Bliss interaction score
[1] | 0.043
[2] | -0.101
[3] | 0.0696
[4] | 0.0628

fitness
Conditions | first compound 0.125 µg/mL | first compound 0.25 µg/mL | first compound 0.5 µg/mL | first compound 1 µg/mL
[5], partner 0.39 µg/mL | – | 0.991 | ≥ 1 | 0.99
[5], partner 0.78 µg/mL | – | ≥ 1 | ≥ 1 | ≥ 1
[5], partner 1.56 µg/mL | – | ≥ 1 | 0.976 | 0.991
[7], partner 0.39 µg/mL | 0.944 | 0.912 | 0.869 | –
[7], partner 0.78 µg/mL | 0.952 | 0.891 | 0.935 | –
[7], partner 1.56 µg/mL | 0.921 | 0.888 | 0.938 | –

fitness, [6], one replicate
Conditions | first compound 0.125 µg/mL | first compound 0.25 µg/mL | first compound 0.5 µg/mL | first compound 1 µg/mL | first compound 2 µg/mL | first compound 4 µg/mL
partner 1 µg/mL | ≥ 1 | ≥ 1 | ≥ 1 | 0.158 | 0.0772 | 0.0589
partner 2 µg/mL | 0.939 | 0.926 | ≥ 1 | 0.3 | 0.0861 | 0.055
partner 4 µg/mL | 0.798 | 0.883 | 0.893 | 0.0824 | 0.0686 | 0.047

C[n+]1ccc(-c2cc[n+](C)cc2)cc1 [Paraquat] + CN(C)c1cc(NC(=O)CNC(C)(C)C)c(O)c2c1C[C@H]1C[C@H]3[C@H](N(C)C)C(O)=C(C(N)=O)C(=O)[C@@]3(O)C(O)=C1C2=O [Tigecycline]
Conditions | Bliss interaction score
[1] | 0.0431
[2] | -0.0568
[3] | 0.0449
[4] | -0.0331

fitness
Conditions | first compound 1.25 µg/mL | first compound 1.5 µg/mL | first compound 2.5 µg/mL | first compound 3 µg/mL | first compound 5 µg/mL | first compound 6 µg/mL
[5], partner 0.039 µg/mL | 0.905 | – | 0.929 | – | 0.881 | –
[5], partner 0.078 µg/mL | ≥ 1 | – | 0.952 | – | 0.934 | –
[5], partner 0.156 µg/mL | 0.975 | – | 0.925 | – | 0.898 | –
[6], partner 0.65 µg/mL | – | 0.974 | – | 0.967 | – | 0.939
[6], partner 1.3 µg/mL | – | 0.956 | – | 0.986 | – | 0.951
[6], partner 2.6 µg/mL | – | 0.923 | – | 0.9 | – | 0.898
[7], partner 0.039 µg/mL | 0.982 | – | 0.975 | – | 0.88 | –
[7], partner 0.078 µg/mL | 0.919 | – | 0.957 | – | 0.86 | –
[7], partner 0.156 µg/mL | 0.94 | – | 0.93 | – | 0.84 | –

fitness, [7], one replicate
Conditions | first compound 1.25 µg/mL | first compound 2.5 µg/mL | first compound 5 µg/mL
partner 0.125 µg/mL | ≥ 1 | ≥ 1 | ≥ 1
partner 0.25 µg/mL | ≥ 1 | 0.93 | 0.941
partner 0.5 µg/mL | 0.998 | 0.973 | 0.893

CC1=C(C(=O)O)N2C(=O)[C@@H](NC(=O)[C@H](N)c3ccccc3)[C@H]2SC1 [Cephalexin] + CCN(CC)CCOC(=O)c1ccc(N)cc1 [Procaine]
Conditions | Bliss interaction score
[1] | -0.0605
[2] | -0.118
[3] | 0.0552
[4] | 0.0569

fitness
Conditions | first compound 0.125 µg/mL | first compound 0.25 µg/mL | first compound 0.5 µg/mL | first compound 1 µg/mL
[5], partner 85.5 µg/mL | – | 0.952 | – | –
[5], partner 342 µg/mL | – | 0.966 | 0.987 | ≥ 1
[7], partner 85.5 µg/mL | 0.925 | 0.911 | 0.904 | –
[7], partner 171 µg/mL | 0.91 | 0.912 | 0.864 | –
[7], partner 342 µg/mL | 0.879 | 0.875 | 0.869 | –

fitness, [6], one replicate
Conditions | first compound 0.125 µg/mL | first compound 0.25 µg/mL | first compound 0.5 µg/mL | first compound 1 µg/mL | first compound 2 µg/mL | first compound 4 µg/mL
partner 85.5 µg/mL | ≥ 1 | ≥ 1 | ≥ 1 | 0.253 | 0.0329 | 0.0487
partner 171 µg/mL | 0.958 | 0.982 | ≥ 1 | 0.422 | 0.058 | 0.0569
partner 342 µg/mL | 0.962 | 0.997 | ≥ 1 | 0.395 | 0.0539 | 0.0475
